The record followed here is PubChem BioAssay AID1845207 (Molecular Pharmacology Branch, DTP, NCI, 2023).

Values joined by “and” are separate entries in the source; they are usually repeats but may differ in a detail not shown here. Equal entries are not always repeated.

This assay concerns NCI-H1876 tumor spheroid viability. Briefly: Anticancer human tumor NCI-H1876 cell line growth inhibition.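 As to all read-outs here: spheroids exposed to compounds for seven days before the viability read.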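 As to viability, T/C: percent of DMSO vehicle control viability so 100% = vehicle.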 To be noted: spheroids with HUVEC and MSC; for viability, T/C: stronger effect = lower value. In short, it runs like this:
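Complex spheroids of malignant cells with endothelial cells and mesenchymal stem cells; agents alone or combined, from near clinical Cmax (or 10 microM if unknown) down in half-log steps, 0.25% DMSO final.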

The mark [1] stands for this setting: curve of first compound, second compound 1 µM.
Setting [2] is: curve of first compound, second compound 3.16 µM.
The mark [3] stands for this setting: curve of first compound, second compound 10 µM.
Setting [4] is: curve of first compound, second compound 31.6 µM.
[5] abbreviates: curve of first compound, second compound 100 µM.

As for `CC1COCCN1c1cc(-c2ccnn2C)c2ccnc(-c3ccn[nH]3)c2n1` (stereo not drawn) + Cn1nnc2c(C(N)=O)ncn2c1=O, the IC50 runs as follows: under setting [1], 55.4 nM; under setting [2], 54.5 nM; under setting [3], 59.8 nM; under setting [4], 33.6 nM; under setting [5], less than 31.6 nM. Besides, the viability, T/C by setting is: (second compound 1 µM, first compound 0.0316 µM) 57%; (second compound 1 µM, first compound 0.1 µM) 42.4%; (second compound 1 µM, first compound 0.316 µM) 30.1%; (second compound 1 µM, first compound 1 µM) 20.7%; (second compound 1 µM, first compound 3.16 µM) 11.2%; (second compound 1 µM, first compound 10 µM) 6.47%. The viability, T/C by setting is: (second compound 3.16 µM, first compound 0.0316 µM) 57.7%; (second compound 3.16 µM, first compound 0.1 µM) 41.3%; (second compound 3.16 µM, first compound 0.316 µM) 30.1%; (second compound 3.16 µM, first compound 1 µM) 19.4%; (second compound 3.16 µM, first compound 3.16 µM) 12.5%; (second compound 3.16 µM, first compound 10 µM) 6.71%. In addition, the viability, T/C is 53% (second compound 10 µM, first compound 0.0316 µM); 49.1% (second compound 10 µM, first compound 0.1 µM); 30.1% (second compound 10 µM, first compound 0.316 µM); 20% (second compound 10 µM, first compound 1 µM); 11% (second compound 10 µM, first compound 3.16 µM); 7.84% (second compound 10 µM, first compound 10 µM). For the same molecule, the viability, T/C is, setting by setting: (second compound 31.6 µM, first compound 0.0316 µM) 51.5%; (second compound 31.6 µM, first compound 0.1 µM) 35.6%; (second compound 31.6 µM, first compound 0.316 µM) 29.5%; (second compound 31.6 µM, first compound 1 µM) 17.2%; (second compound 31.6 µM, first compound 3.16 µM) 10.8%; (second compound 31.6 µM, first compound 10 µM) 7.29%. Moreover, the viability, T/C by setting is: (second compound 100 µM, first compound 0.0316 µM) 32.2%; (second compound 100 µM, first compound 0.1 µM) 24%; (second compound 100 µM, first compound 0.316 µM) 18.8%; (second compound 100 µM, first compound 1 µM) 11.7%; (second compound 100 µM, first compound 3.16 µM) 28.5%; (second compound 100 µM, first compound 10 µM) 6.09%.

As for `Cn1ncnc1[C@H]1c2n[nH]c(=O)c3cc(F)cc(c23)N[C@@H]1c1ccc(F)cc1` + Cn1nnc2c(C(N)=O)ncn2c1=O, the IC50 runs as follows: under setting [1], 43.2 nM; under setting [2], 60.8 nM; under setting [3], 16 nM; under setting [4], less than 9.49 nM; under setting [5], less than 9.49 nM. In addition, the viability, T/C by setting is: (second compound 1 µM, first compound 0.00949 µM) 70.1%; (second compound 1 µM, first compound 0.03 µM) 54.6%; (second compound 1 µM, first compound 0.0949 µM) 39%; (second compound 1 µM, first compound 0.3 µM) 25.1%; (second compound 1 µM, first compound 0.949 µM) 10.8%; (second compound 1 µM, first compound 3 µM) 5.26%. Also, the viability, T/C runs as follows: (second compound 3.16 µM, first compound 0.00949 µM) 72.4%; (second compound 3.16 µM, first compound 0.03 µM) 52.1%; (second compound 3.16 µM, first compound 0.0949 µM) 52.3%; (second compound 3.16 µM, first compound 0.3 µM) 20%; (second compound 3.16 µM, first compound 0.949 µM) 50%; (second compound 3.16 µM, first compound 3 µM) 15.5%. The viability, T/C is 56.8% (second compound 10 µM, first compound 0.00949 µM); 38.1% (second compound 10 µM, first compound 0.03 µM); 47.2% (second compound 10 µM, first compound 0.0949 µM); 15% (second compound 10 µM, first compound 0.3 µM); 33.5% (second compound 10 µM, first compound 0.949 µM); 5.45% (second compound 10 µM, first compound 3 µM). In addition, the viability, T/C reads like this: (second compound 31.6 µM, first compound 0.00949 µM) 29.2%; (second compound 31.6 µM, first compound 0.03 µM) 19.2%; (second compound 31.6 µM, first compound 0.0949 µM) 14.5%; (second compound 31.6 µM, first compound 0.3 µM) 12%; (second compound 31.6 µM, first compound 0.949 µM) 8.61%; (second compound 31.6 µM, first compound 3 µM) 4.86%. The viability, T/C (second compound 100 µM, first compound 0.00949 µM) is 13.8%; the viability, T/C (second compound 100 µM, first compound 0.03 µM) is 10.8%; the viability, T/C (second compound 100 µM, first compound 0.0949 µM) is 11.6%; the viability, T/C (second compound 100 µM, first compound 0.3 µM) is 9.19%; the viability, T/C (second compound 100 µM, first compound 0.949 µM) is 33.3%; the viability, T/C (second compound 100 µM, first compound 3 µM) was 4.67%.

In the case of `CC1COCCN1c1cc(-c2ccnn2C)c2ccnc(-c3ccn[nH]3)c2n1` (stereo not drawn), the viability, T/C runs as follows: (compound 0.0316 µM) 54% and 61.9% and 73.3%; (compound 0.1 µM) 32.2% and 41.5% and 41.2%; (compound 0.316 µM) 18.1% and 48.3% and 20.1%; (compound 1 µM) 6.97% and 20% and 7.21%; (compound 3.16 µM) 3.09% and 11.9% and 3.22%; (compound 10 µM) 2.37% and 7.33% and 2.52%. In addition, for the setting “curve of compound”, the IC50 is 39.1 nM and 121 nM and 73.6 nM.

`Cc1cc(C)c(CNC(=O)c2cc(-c3ccc(CN4CCOCC4)cc3)cc3c2cnn3C2CCCC2)c(=O)[nH]1`: the viability, T/C is, setting by setting: (compound 0.0316 µM) 100% and 97.7% and 96.6%; (compound 0.1 µM) 102% and 83.9% and 79.4%; (compound 0.316 µM) 105% and 63% and 63.8%; (compound 1 µM) 105% and 49.2% and 51.9%; (compound 3.16 µM) 107% and 28.4% and 30.3%; (compound 10 µM) 99.2% and 12% and 11.3%.
